Assay results published in US20220226321A1, “INHIBITOR OF MNK FOR THE TREATMENT OF NEUROPATHIC PAIN” (Board of Regents, The University of Texas System, priority 2019, published 2022).
Like-named read-outs stand apart in the source and are kept apart here.

Test system: Nav1.8-positive nociceptors
Assay type: in vivo, mouse
[1] = input transcriptome of whole DRG, day 10

## CC(=O)O[C@H]1C(=O)[C@@]2(C)[C@H]([C@H](OC(=O)c3ccccc3)[C@]3(O)C[C@H](OC(=O)[C@H](O)[C@@H](NC(=O)c4ccccc4)c4ccccc4)C(C)=C1C3(C)C)[C@]1(OC(C)=O)CO[C@@H]1C[C@@H]2O [paclitaxel]
Nav1.8-TRAP after paclitaxel
  Log2FC 0st4: 1.718
  Log2FC 2010107E04Rik: 2.12
  Log2FC 2310039H08Rik: 5.143
  Log2FC 2700094K13R1k: 3.302
  Log2FC 4833439L19R1k: 2.132
  Log2FC Aars2: 2.418
  Log2FC Acadvl: 1.927
  Log2FC Acap3: 3.498
  Log2FC Acp1: 1.942
  Log2FC Adamts8: 3.561
  Log2FC Adcy6: 2.711
  Log2FC Alkbh3: 6.476
  Log2FC Amacr: 2.955
  Log2FC Amd1: 3.371
  Log2FC Amer2: 2.706
  Log2FC Anapc13: 3.575
  Log2FC AngptI2: 2.189
  Log2FC Ankrd13b: 2.385
  Log2FC Anxa5: 1.873
  Log2FC Ap2m1: 1.802
  Log2FC Apip: 3.746
  Log2FC Arl3: 1.891
  Log2FC Arl6: 2.816
  Log2FC Arpc1b: 2.309
  Log2FC Asna1: 2.939
  Log2FC Atg4c: 2.347
  Log2FC Atp5c1: 2.208
  Log2FC Atp5j2: 1.988
  Log2FC Avpi1: 2.241
  Log2FC Bcl3: 1.89
  Log2FC Bloc1s1: 1.944
  Log2FC Btbd2: 1.76
  Log2FC C77080: 2.169
  Log2FC Calca: 1.643
  Log2FC Camk1: 1.856
  Log2FC Caml: 1.865
  Log2FC Card19: 1.753
  Log2FC Casp6: 5.72
  Log2FC Ccm2: 1.643
  Log2FC Cct3: 1.638
  Log2FC Cd1d1: 3.345
  Log2FC Cdc42ep3: 3.249
  Log2FC Cdpf1: 1.815
  Log2FC Cenpf: 2.902
  Log2FC Cfap206: 3.055
  Log2FC Cfd: 2.201
  Log2FC Chchd10: 3.153
  Log2FC Chp1: 1.916
  Log2FC Cisd2: 2.375
  Log2FC Cln5: 3.447
  Log2FC Cnih4: 1.926
  Log2FC Cnrip1: 2.136
  Log2FC Cntfr: 2.495
  Log2FC Coq3: 4.105
  Log2FC Cox6b1: 1.818
  Log2FC Cox7a2: 2.17
  Log2FC Cox7b: 2.566
  Log2FC Cox18: 2.806
  Log2FC Crlf2: 3.214
  Log2FC DIg2: 2.734
  Log2FC Dad1: 2.457
  Log2FC Ddt: 1.823
  Log2FC Ddx59: 3.577
  Log2FC Dhrs1: 1.833
  Log2FC Dnajb1: 1.888
  Log2FC Dnajc5: 1.672
  Log2FC Dnal4: 3.156
  Log2FC Dolk: 3.023
  Log2FC Dpm3: 2.927
  Log2FC Dzank1: 2.226
  Log2FC Edfl: 2.362
  Log2FC Efccl: 3.201
  Log2FC Eif3l: 1.622
  Log2FC Eif4a3: 2.269
  Log2FC Elk4: 1.928
  Log2FC Emd: 2.135
  Log2FC Endov: 2.652
  Log2FC Esd: 1.658
  Log2FC Esyt1: 3.657
  Log2FC Fabp7: 2.365
  Log2FC Fads3: 2.619
  Log2FC Fam89a: 3.216
  Log2FC Fam132a: 3.453
  Log2FC Fam172a: 2.094
  Log2FC Fam189b: 1.8
  Log2FC Fbxo2: 2.965
  Log2FC Fkbp1b: 1.714
  Log2FC Fm43b: 4.132
  Log2FC Fsd1: 3.044
  Log2FC Fxyd2: 1.653
  Log2FC Gdf1: 2.419
  Log2FC Gla: 1.793
  Log2FC Gm20721: 2.093
  Log2FC Gmppa: 2.033
  Log2FC Gpr75: 3.81
  Log2FC Gstm1: 3.155
  Log2FC H2-T23: 3.904
  Log2FC H2afj: 2.76
  Log2FC H2afz: 1.717
  Log2FC Hagh: 3.067
  Log2FC Hhatl: 3.915
  Log2FC Hist3h2ba: 2.223
  Log2FC Hspa8: 1.666
  Log2FC Idh3b: 1.905
  Log2FC Ift122: 2.378
  Log2FC Igtp: 2.41
  Log2FC Kcnip2: 2.308
  Log2FC Kcnip4: 1.68
  Log2FC Krt28: 5.481
  Log2FC L3mbt12: 1.691
  Log2FC Lamtor5: 1.975
  Log2FC Lcmt1: 1.712
  Log2FC Lingo2: 2.247
  Log2FC Litaf: 2.888
  Log2FC Lrrc55: 5.433
  Log2FC Lxn: 2.119
  Log2FC Lyrm2: 2.832
  Log2FC M pl36: 2.805
  Log2FC Mok: 7.257
  Log2FC Mpp4: 3.465
  Log2FC Mpv17: 1.73
  Log2FC Mrpl18: 1.683
  Log2FC Mrpl34: 2.378
  Log2FC Mrpl42: 1.785
  Log2FC Mrps36: 2.585
  Log2FC Mtor: 1.973
  Log2FC Mxd3: 1.905
  Log2FC Ndufa4: 2.041
  Log2FC Ndufa8: 1.699
  Log2FC Ndufaf7: 2.358
  Log2FC Ndufs8: 2.837
  Log2FC Nedd9: 3.023
  Log2FC Ngfr: 1.805
  Log2FC Nipsna p3b: 2.057
  Log2FC Nme2: 3.66
  Log2FC Ntrk1: 2.2
  Log2FC Omg: 2.194
  Log2FC PIpp1: 2.874
  Log2FC Pafah2: 2.283
  Log2FC Pcbd2: 2.687
  Log2FC Pcdhb9: 2.519
  Log2FC Pex11b: 3.628
  Log2FC Pgrmc2: 1.76
  Log2FC Phpt1: 1.814
  Log2FC Pnrc2: 1.668
  Log2FC Polr1c: 2.731
  Log2FC Polr2j: 3.518
  Log2FC Ppdpf: 2.038
  Log2FC Ppp1ca: 2.094
  Log2FC Praf2: 2.335
  Log2FC Prdx5: 2.174
  Log2FC Prg4: 3.247
  Log2FC Prkrir: 2.096
  Log2FC Prkx: 2.201
  Log2FC Prm1: 1.732
  Log2FC Psma2: 2.07
  Log2FC Ptdss1: 1.681
  Log2FC Ptp4a3: 2.248
  Log2FC Ptprf: 1.742
  Log2FC Pxdc1: 3.578
  Log2FC Rad9a: 1.786
  Log2FC Rbc1: 1.841
  Log2FC Rcn3: 2.085
  Log2FC Rd54l: 4.965
  Log2FC Rft1: 3.183
  Log2FC Rho: 5.352
  Log2FC Rnase4: 2.356
  Log2FC Rnh1: 2.827
  Log2FC Romo1: 2.002
  Log2FC Rpl10a: 2.764
  Log2FC Rpl23a: 1.728
  Log2FC Rpl37: 2.314
  Log2FC Rpl39: 2.279
  Log2FC Rprm: 1.703
  Log2FC Rps2: 2.442
  Log2FC Rps29: 2.994
  Log2FC Rraga: 1.845
  Log2FC Rtn4rl1: 2.407
  Log2FC Rwdd1: 2.511
  Log2FC Sag: 1.948
  Log2FC Scpep1: 2.923
  Log2FC Sdhb: 3.236
  Log2FC Sec14I1: 2.129
  Log2FC Serp2: 2.805
  Log2FC Serpina3n: 2.549
  Log2FC Serping1: 3.002
  Log2FC Shisa5: 2.137
  Log2FC Slc3a2: 2.841
  Log2FC Slc6a15: 1.979
  Log2FC Slc25a3: 2.641
  Log2FC Slc30a6: 2.809
  Log2FC Slc48a1: 1.977
  Log2FC Smdt1: 2.016
  Log2FC Smug1: 4.754
  Log2FC Snrpg: 1.657
  Log2FC Soat2: 4.066
  Log2FC Sod1: 1.77
  Log2FC Sorbs1: 2.942
  Log2FC Spink10: 3.169
  Log2FC Synb: 3.1
  Log2FC Syngr3: 1.701
  Log2FC Tagln3: 2.101
  Log2FC Tdrp: 2.335
  Log2FC Tgm2: 2.739
  Log2FC Thoc7: 2.07
  Log2FC Timm8b: 2.815
  Log2FC Timm9: 1.838
  Log2FC Tmem9b: 1.818
  Log2FC Tmem14c: 1.657
  Log2FC Tmem53: 2.851
  Log2FC Tmem106b: 1.891
  Log2FC Tmem120b: 3.033
  Log2FC Tmem126a: 2.744
  Log2FC Tmem129: 2.655
  Log2FC Tnfaip8l3: 4.38
  Log2FC Tonsl: 1.762
  Log2FC Tpgs2: 2.076
  Log2FC Tram1: 2.174
  Log2FC Trap1: 2.447
  Log2FC Trim11: 2.395
  Log2FC Trpv1: 1.657
  Log2FC Tspan17: 2.337
  Log2FC Tubb4b: 2.111
  Log2FC Tyro3: 2.927
  Log2FC Ucp1: 3.795
  Log2FC Ufsp2: 1.927
  Log2FC Uqcrc2: 3.514
  Log2FC Uqcrq: 1.825
  Log2FC Use1: 1.748
  Log2FC Usmg5: 1.798
  Log2FC Vezf1: 1.933
  Log2FC Wbp2: 1.689
  Log2FC Wdr35: 2.68
  Log2FC ll15ra: 3.551
  Log2FC mt-Nd1: 1.74
TRAP fraction
  normalized TPM for the Rraga mRNA: 3.6±0.51
TRAP-seq after paclitaxel treatment
  increase in number of normalized reads mapping to the Rraga mRNA: 3.5 fold
TRAP-seq data set
  number of genes down regulated: 222
  number of genes up-regulated: 230
Gene Med6, upregulated in Nav1.8-TRAP after paclitaxel
  Log2FC Med6: 2.473
Gene Mien1, upregulated in Nav1.8-TRAP after paclitaxel
  Log2FC Mien1: 1.847
Gene Mmd, upregulated in Nav1.8-TRAP after paclitaxel
  Log2FC Mmd: 2.026
Gene Mob1a, upregulated in Nav1.8-TRAP after paclitaxel
  Log2FC Mob1a: 2.683
Gene Mob3b, upregulated in Nav1.8-TRAP after paclitaxel
  Log2FC Mob3b: 2.179
Gene Ythdf2, upregulated in Nav1.8-TRAP after paclitaxel
  Log2FC Ythdf2: 1.866
Gene Ywhaq, upregulated in Nav1.8-TRAP after paclitaxel
  Log2FC Ywhaq: 1.837
Gene Zfp386, upregulated in Nav1.8-TRAP after paclitaxel
  Log2FC Zfp386: 3.022
Gene Zfp467, upregulated in Nav1.8-TRAP after paclitaxel
  Log2FC Zfp467: 2.147
Gene Zyx, upregulated in Nav1.8-TRAP after paclitaxel
  Log2FC Zyx: 2.08
Input fraction
  normalized TPM for the Rraga mRNA: 2.04±0.17
[1]
  number of genes down-regulated: 1
  number of genes up-regulated: 4
mouse, in vivo
  Log2FC Stx2: 1.896
